Read-outs that look alike come from different tables or passages of the source.
How the values were obtained:
[1] = test system: intracranial MDA-MB-231-BR human triple-negative breast cancer xenografts; assay: Efficacy study: median survival in intracranial model of breast cancer; format: in vivo, Foxn1nu/nu mice; details: single agent, control 26 (25-28)
Description: Therapeutic studies and assessment for response were performed with the assistance of the Mouse Phase I Unit (MP1U). Female, Foxn1^nu/nu mice, approximately 20 grams and aged 8 weeks of age were bred in-house from animals purchased from Charles River Laboratories International, Inc. (Wilmington, MA; Stock #490) and were used for all studies. […] Cells were stereotactically-injected into the right caudate nucleus of the basal ganglia using a 27 gauge needle (from Bregma a:1.0mm, l:-2.0 mm, d:-4.0 mm) which remained in place for a period of 2 minutes (min) to minimize reflux through the needle track.
The Kaplan-Meier method and Log-rank tests were used to evaluate and compare overall survival among treatment groups. Unadjusted p-values are reported. For bioluminescence imaging, fold changes were calculated relative to the start date of treatment. […] For every time point where at least two animals were alive in the treatment group, the median level and interquartile range (25th–75th percentile) for bioluminescence imaging were calculated.

[2] = test system: intracranial MDA-MB-231-BR luciferase-expressing tumors; assay: Bioluminescence imaging of intracranial tumors; format: in vivo, Foxn1nu/nu mice
Description: All animals were anesthetized via inhalation with 2% vaporized isoflurane during the imaging process. Approximately 15 min prior to imaging, all inoculated mice received an intraperitoneal (IP) injection of D-Luciferin dissolved in PBS (150 mg/kg; Caliper Life Sciences, Hopkinton, MA). To confirm the presence or absence of intracranial tumor, mice were imaged using the IVIS Lumina camera (Caliper Life Sciences, Hopkinton, MA). Images were analyzed using Living Image 4.0 Software (Caliper Life Sciences, Hopkinton, MA). All values were recorded as photons/second and were corrected for the presence of background signal.
Treatment was ongoing until clinical symptoms necessitated sacrifice. […] Mice were weighed a minimum of three times/weekly and were monitored by optical imaging weekly until clinical symptoms (i.e. decreased response to stimuli, neurologic dysfunction, weight loss of 20% and/or a Body Composition Score of 2 or less) necessitated sacrifice.
The Kaplan-Meier method and Log-rank tests were used to evaluate and compare overall survival among treatment groups. […] For bioluminescence imaging, fold changes were calculated relative to the start date of treatment. If present, negative imaging values (due to correction for background) were recorded and set to zero. […]

MDA-MB-231-BR cells = assay: Cell viability (MTS) assay, single agent and combination treatments; format: cell-based; details: Homo sapiens, read-out: IC50 (50% reduction in MTS dye conversion), 72 hours, single agent
Description: A mitochondrial dye conversion assay (Cell Titer 96® Aqueous One Solution Cell Proliferation Assay; Promega Corp., Madison, WI) was used to measure cell viability after treatment. This assay was conducted according to manufacturer's instructions, with modifications. […] Cell counting was performed with an automated cell counter. Cells were allowed to adhere overnight, and media was replaced with fresh media containing a range of drug doses. After the specified treatment period, 20 µl of tetrazolium compound inner salt (MTS) containing an electron coupling reagent, phenazine ethosulfate (PES) was added in each well and incubated at 37°C for 1 hour (h). The MTS absorbance was measured spectrophotometrically at 490 nm (minus background absorbance). All cytotoxic experiments were done in triplicate.
Drug combination interactions were analyzed using methods developed by Chou and Talalay.
CalcuSyn (BioSoft, Cambridge, UK) was used to estimate the IC50 for each drug and to determine the combination index, which is a measurement of the type of drug interactions. A combination index (CI) of 1 indicates an additive response, <1 indicates a synergistic response, and >1 indicates an antagonistic response.

[3] = test system: formation of PAR in MDA-MB-231-BR cellular extracts; assay: PAR levels in cellular extracts (HT PARP in vivo Pharmacodynamic Assay II); format: cell-based, human; details: data not shown
Description: Doxorubicin (NonL-doxo) and PEGylated liposomal doxorubicin (PLD, Doxil®) were both obtained from the University of North Carolina (UNC) Hospitals Pharmacy (Chapel Hill, NC). The poly-ADP-ribose polymerase (PARP) inhibitor, ABT-888, was synthesized by the Chemistry Center for Integrative Chemical Biology and Drug Discovery at UNC (Dr. S. Frye). ABT-888 was dissolved in PBS (phosphate-buffered saline, Life Technologies, Grand Island, NY). The molecular weight of pure ABT-888 is 244.29 g/mol, while the molecular weight of the salt form (which includes 2 HCl molecules) is 317.21 g/mol. All calculations were performed using the molecular weight of the salt form of ABT-888. The ability of ABT-888 to inhibit the formation of PAR was confirmed by measuring PAR levels in MDA-MB-231-BR cellular extracts using HT PARP in vivo Pharmacodynamic Assay II (Trevigen, Gaitherburg, MD, data not shown).

[4] = Pharmacokinetic study: sum total doxorubicin in plasma, brain tumor and brain by HPLC-FL; format: in vivo; details: 6 mg/kg IV x1; for AUC(0-inf): read-out: AUC0-∞ of sum total doxorubicin
Description: Group 1 (n = 23) received NonL-doxo administered over 10–15 seconds at 6 mg/kg IV ×1 via tail vein.
Approximately 1 mL of blood was collected via terminal cardiac puncture following deep anesthesia (ketamine 100 mg/kg IP ×1 and Domitor® 1 mg/kg IP ×1) using sodium heparin as an anticoagulant and centrifuged at 1,500 g for 5 minutes to collect plasma. Brain tumor, peri-tumoral brain and normal (contralateral, non-tumor) brain were collected from each mouse. Plasma, tumor, and tissues were placed in cryopreservation vials and preserved by snap freezing using liquid nitrogen. All samples were stored at −80°C until analysis.
Total tissue and tumor weight was recorded at time of collection. Whole tissue and tumors were snap frozen in liquid nitrogen and stored at −80°C until homogenized. To form tissue and tumor homogenates, the intact tissues and tumors were thawed and sectioned. The sections were weighed and diluted in a 1:3 ratio with phosphate buffered saline (PBS) solution. Finally, these mixtures were homogenized by placing zirconium oxide beads (15 small and 2 large; Omni International Inc, Kennesaw, GA) into 2 mL tubes at […] using a Precellys 24 homogenizer (Omni International Inc, Kennesaw, GA) twice for 15 sec each with a 5 sec wait between each run.
Samples were further processed for the analytical studies using protein precipitation with acetonitrile. An 800 µL of extraction solution containing internal standard (acetonitrile with 100 ng/mL daunorubicin) was added to 200 µL of plasma, tumor or tissue homogenate into a 2 mL microcentrifuge tube. The samples were vortexed for 10 min and centrifuged at 10,000×g for 10 min at 4°C. […] The samples were then vortexed, transferred into auto-sampler vials and analyzed by high-performance liquid chromatography (HPLC) using fluorescence (FL) detection (excitation wavelength: 490 nm/ emission wavelength: 590 nm). The HPLC-FL method to measure sum total (encapsulated and released) doxorubicin in plasma, tumor, and tissues was modified from previous studies, [23], [24].
The area under the concentration versus time curve from 0 to ∞ (AUC0–∞) was calculated using the linear up/log down rule. The plasma volume of distribution (Vd), clearance (CL), and half-life (t1/2) were calculated using standard equations. The maximum concentration (Cmax) and time of Cmax (tmax) were determined by visual inspection of the concentration versus time data.

[5] = female, athymic nude (nu/nu), mouse, brain tumor
[6] = female, athymic nude (nu/nu), mouse, normal brain
[7] = female, athymic nude (nu/nu), mouse, peri-tumoral brain
[8] = female, athymic nude (nu/nu), mouse, plasma

Which “Median Survival and 95% CI” value ([1]; ABT-888 25 mg/kg/day oral gavage, 25 mg/kg/day) does the source give for `C[C@]1(c2nc3c(C(N)=O)cccc3[nH]2)CCCN1` [ABT-888] here?
Its value is 27 (24 – 31) days.

What about the “highest median fold change from baseline in bioluminescence” value ([2]; ABT-888 25 mg/kg/day OG, 4 weeks post-treatment, control 87.8 at 3 weeks) of the same compound?
Its value is 41.8.

What about the IC50 (MDA-MB-231-BR cells) of the same compound?
Its IC50 is 277 µM.

What about the “ability to inhibit the formation of PAR” value [3] of the same compound?
Its value is “confirmed”.

With `COc1cccc2c1C(=O)c1c(O)c3c(c(O)c1C2=O)C[C@@](O)(C(=O)CO)C[C@@H]3O[C@H]1C[C@H](N)[C@H](O)[C@H](C)O1` [NonL-doxo, Doxorubicin] as the compound, how does the “time after which sum total doxorubicin was undetectable” value (“time” for short) ([4]; brain tumor) read?
Its value is 24 h.

What about the Cmax [4, 5] of the same compound?
The Cmax was 570 ng/mL.

What about the Tmax [4, 5] of the same compound?
Its Tmax is 6 h.

And the AUC(0-inf) [4, 5]?
Its AUC(0-inf) is 12100 ng·h/mL.

What about the AUC(0-inf) ([4]; female, athymic nude (nu/nu), mouse, normal (contralateral, non-tumor) brain) of the same compound?
Its AUC(0-inf) is 326 ng·h/mL.

What about the Cmax [4, 6] of the same compound?
Its Cmax is 92 ng/mL.

And the Tmax [4, 6]?
Its Tmax is 1 h.

And the Cmax [4, 7]?
Its Cmax is 32 ng/mL.

What about the Tmax [4, 7] of the same compound?
The Tmax was 3 h.

What about the AUC(0-inf) [4, 7] of the same compound?
Its AUC(0-inf) is 283 ng·h/mL.

And the Cmax [4, 8]?
The Cmax was 831 ng/mL.

And the Tmax [4, 8]?
The Tmax was 0.083 h.

And the Vd [4, 8]?
The Vd was 56.2 L/kg.

And the AUC(0-inf) ([4]; female, athymic nude (nu/nu), mouse, plasma, noncompartmental)?
The AUC(0-inf) was 1540 ng·h/mL.

And the clearance ([4]; female, athymic nude (nu/nu), mouse, plasma, read-out: CL of sum total doxorubicin (converted))?
Its clearance is 64.7 mL/min/kg.

And the half-life ([4]; female, athymic nude (nu/nu), mouse, plasma, read-out: t1/2 of sum total doxorubicin (converted))?
The half-life was 10 h.

And the “time” value ([4]; normal (contralateral, non-tumor) brain)?
Its value is 3 h.

And the “time” value ([4]; peri-tumoral brain)?
Its value is 6 h.

What about the “time” value ([4]; plasma) of the same compound?
The value was 24 h.

And the “Median Survival and 95% CI” value ([1]; 6 mg/kg IV weekly, from intracranial cell injection)?
Its value is 23.5 (18 – 28) days.

And the “highest median fold-change in bioluminescence” value ([2]; 6 mg/kg IV weekly single agent, 3 weeks post-treatment)?
Its value is 4.6.

And the IC50 (MDA-MB-231-BR cells)?
Its IC50 is 0.242 µM.

— PMC3641071, “Pharmacokinetics and Efficacy of PEGylated Liposomal Doxorubicin in an Intracranial Model of Breast Cancer” (PLoS ONE, 2013)
